Results: US20070086956A1, “Method for accelerating the rate of mucociliary clearance” (BAYER AKTIENGESELLSCHAFT, priority 1998, published 2007)

Assays:
[1] = target: bovine pancreatic kallikrein; test: Inhibition of bovine pancreatic kallikrein, Ki; type: biochemical; settings: Table 4A; Bovine Pancreatic Kallikrein (92.0 pM)
Procedure: After 5 min. at 37° C., 15 μl of 2 mM GPK-AMC was added and the change in fluorescence (as above) was monitored. […] After 5 min. incubation at 37° C., 25 μl of 20 mM GPK-AMC was added and the change in fluorescence monitored. […] After 5 min. at 37° C. 15 μl of 20 mM PFR-AMC was added and the change in fluorescence monitored.

[2] = Isoelectric point by isoelectric focusing; type: physicochemical
Procedure: After staining, the migration distance from the cathodic edge of the gel to the different protein bands was measured. The pI of each unknown was determined by using a standard curve generated by a plot of the migration distance of standards versus the corresponding pI's. […] (Tenstad et al., 1994, Acta Physiol. Scand. 152: 33-50).

[3] = target: T1, human neutrophil elastase (Homo sapiens, UniProt P08246); test: Inhibition of human neutrophil elastase, Ki (Dixon plots); type: biochemical; settings: Table 4A; elastase
T1 sequence (P08246 30-267): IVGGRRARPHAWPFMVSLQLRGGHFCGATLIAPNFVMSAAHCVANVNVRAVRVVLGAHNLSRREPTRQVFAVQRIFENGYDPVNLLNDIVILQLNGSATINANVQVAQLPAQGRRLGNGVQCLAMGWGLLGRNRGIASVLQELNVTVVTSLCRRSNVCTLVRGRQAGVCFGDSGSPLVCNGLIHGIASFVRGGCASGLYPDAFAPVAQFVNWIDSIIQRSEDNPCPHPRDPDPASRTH
Procedure: […] Ki values were determined from Dixon plots of the form 1/V versus performed at two different substrate concentrations (Dixon et al., 1979).

**Q.** Which Ki [1] does the source give for `CC[C@H](C)[C@H](N)C(=O)N[C@@H](Cc1c[nH]cn1)C(=O)N[C@@H](CC(=O)O)C(=O)N[C@@H](Cc1ccccc1)C(=O)N[C@H]1CSSC[C@@H](C(=O)N[C@@H](C)C(=O)N[C@H](C(=O)N[C@H](C(=O)O)C(C)C)[C@@H](C)O)NC(=O)[C@H](CCCCN)NC(=O)[C@H](CCCCN)NC(=O)[C@H](CC(C)C)NC(=O)[C@@H]2CSSC[C@@H]3NC(=O)[C@H](CO)NC(=O)CNC(=O)[C@H](CC(=O)O)NC(=O)[C@H]([C@@H](C)O)NC(=O)[C@H](C(C)C)NC(=O)[C@H](CC(N)=O)NC(=O)[C@H](Cc4ccc(O)cc4)NC(=O)[C@H](Cc4c[nH]c5ccccc45)NC(=O)[C@H](Cc4c[nH]c5ccccc45)NC(=O)[C@H](CCCNC(=N)N)NC(=O)[C@@H]4CCCN4C(=O)[C@H](CCSC)NC(=O)[C@H](CO)NC(=O)[C@H](C)NC(=O)[C@H](CCCNC(=N)N)NC(=O)[C@H](CSSC[C@H](NC(=O)CNC(=O)CNC(=O)[C@H](Cc4ccc(O)cc4)NC(=O)[C@H](C(C)C)NC(=O)[C@H](Cc4ccccc4)NC(=O)[C@H](CC(C)C)NC(=O)[C@H](CCC(N)=O)NC3=O)C(=O)N[C@@H](CC(=O)O)C(=O)NCC(=O)N[C@@H](CC(N)=O)C(=O)N[C@@H](CO)C(=O)N[C@@H](CC(N)=O)C(=O)N[C@@H](CC(N)=O)C(=O)N[C@@H](Cc3ccc(O)cc3)C(=O)N[C@@H](CC(C)C)C(=O)N[C@@H]([C@@H](C)O)C(=O)N[C@@H](CCCCN)C(=O)N[C@@H](CCC(=O)O)C(=O)N[C@@H](CCC(=O)O)C(=O)N2)NC(=O)[C@H](CCCNC(=N)N)NC(=O)CNC(=O)[C@H](C(C)C)NC(=O)[C@H](C(C)C)NC(=O)[C@H](CCCCN)NC(=O)[C@H](CO)NC(=O)[C@H](C(C)C)NC(=O)[C@H](CC(C)C)NC1=O` [bikunin (7-64)] here?
**A.** 0.4 nM

**Q.** And the pI ([2]; first preparation of bikunin (7-64) (possibly not completely deprotected), migrated to the cathodic edge of the gel (pH 9.5))?
**A.** much higher than the predicted value

**Q.** What about the pI ([2]; refolded purified protein, Ampholine PAGplate (pH 3.5 to 9.5)) of the same molecule?
**A.** 8.85

**Q.** And the Ki [3]?
**A.** > 100 nM
